Among the test systems are SNB-19 CNS; NCI-H522 lung; SR leukemia; KM12 colon; SF-539 CNS; HCC-2998 colon; UACC-257 melanoma; T-47D breast; SK-OV-3 ovarian; CCRF-CEM leukemia; LOX IMVI melanoma; MCF7 breast; ACHN renal; UO-31 renal; SF-295 CNS; A498 renal; MALME-3M melanoma; OVCAR-8 ovarian; HS 578T breast.
Holding throughout (experiment): NCI anticancer screen, dose series, 48 h

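How tested: cells in 96-well plates exposed to compound for 48 hours at five concentrations. TGI is the concentration that stops growth completely.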

With `c1ccc2c3nnc(c2c1)SCCCSc1nnc(c2ccccc12)SCCCS3`, the TGI in the assay with SNB-19 CNS is over 100 µM; in the assay with NCI-H522 lung, over 100 µM; with SR leukemia, over 100 µM; in the assay with KM12 colon, over 100 µM; with SF-539 CNS it was 28.3 µM; with HCC-2998 colon, over 100 µM. Besides, the TGI with UACC-257 melanoma, with T-47D breast, in the assay with SK-OV-3 ovarian, with CCRF-CEM leukemia, in the assay on LOX IMVI melanoma and in the assay with MCF7 breast was over 100 µM each time. The TGI in the assay on ACHN renal was over 100 µM; with UO-31 renal, over 100 µM; with SF-295 CNS, over 100 µM; with A498 renal, over 100 µM; with MALME-3M melanoma, 72.1 µM; in the assay on OVCAR-8 ovarian it was over 100 µM.
On to `Cc1cccc(C)c1N1C(=O)C2c3[nH]c4ccccc4c3C3CCC(C(C)(C)C)CC3C2C1=O` (centres undefined), for which the TGI in the assay with SNB-19 CNS was over 100 µM; with SR leukemia, over 100 µM; with SF-539 CNS it was 37.5 µM; in the assay with HCC-2998 colon, 14.9 µM; in the assay on UACC-257 melanoma, 37.5 µM; in the assay with SK-OV-3 ovarian it was over 100 µM. Also, the TGI with CCRF-CEM leukemia was found to be 45.1 µM; in the assay with LOX IMVI melanoma, 23.6 µM; in the assay on ACHN renal, 33.7 µM; in the assay on UO-31 renal, 26 µM; in the assay on SF-295 CNS, 51.9 µM; with A498 renal, 37.6 µM. Also, the TGI in the assay with MALME-3M melanoma is 28.2 µM; with HS 578T breast it was 44 µM; in the assay on OVCAR-8 ovarian it was 37 µM.
For `CC(C)(C)OC(=O)NC(CS(=O)(=O)O)C(=O)O` (centres undefined), the TGI in the assay on SNB-19 CNS, in the assay on NCI-H522 lung, in the assay on SR leukemia, in the assay with KM12 colon, in the assay with SF-539 CNS and in the assay on HCC-2998 colon was over 100 µM in each case. For the same compound, the TGI with UACC-257 melanoma, in the assay on T-47D breast, with SK-OV-3 ovarian, with CCRF-CEM leukemia, in the assay on LOX IMVI melanoma and with MCF7 breast was over 100 µM each time. For the same compound, the TGI in the assay with ACHN renal, in the assay with UO-31 renal, in the assay on SF-295 CNS, with A498 renal, in the assay on MALME-3M melanoma and in the assay on OVCAR-8 ovarian was over 100 µM throughout.
In the case of `CCn1c(O)c(C=Nc2ccccc2)s/c1=N/Nc1nc(-c2ccc(O)c(O)c2)cs1`, the TGI in the assay with SNB-19 CNS is over 100 µM; in the assay with NCI-H522 lung, 98.2 µM; in the assay with SR leukemia it was 15.9 µM; in the assay with KM12 colon it was over 100 µM; in the assay on SF-539 CNS, 4.76 µM; in the assay with UACC-257 melanoma it was over 100 µM. The TGI in the assay with SK-OV-3 ovarian was over 100 µM; in the assay with CCRF-CEM leukemia it was 57 µM; in the assay with LOX IMVI melanoma it was over 100 µM; in the assay with MCF7 breast, over 100 µM; in the assay with ACHN renal it was over 100 µM; with UO-31 renal, over 100 µM. The TGI in the assay with SF-295 CNS was 85.6 µM; in the assay with MALME-3M melanoma it was over 100 µM; in the assay on HS 578T breast, over 100 µM; with OVCAR-8 ovarian, over 100 µM.
As for `Cc1cc(-c2cscn2)c(O)c([N+](=O)[O-])c1`, the TGI with SNB-19 CNS was over 100 µM; in the assay on SF-539 CNS, over 100 µM; in the assay on HCC-2998 colon, over 100 µM; in the assay on UACC-257 melanoma it was over 100 µM; in the assay on SK-OV-3 ovarian it was 96 µM; in the assay with CCRF-CEM leukemia, over 100 µM. In addition, the TGI is over 100 µM in the assay on LOX IMVI melanoma; over 100 µM with MCF7 breast; over 100 µM in the assay with ACHN renal; over 100 µM with UO-31 renal; over 100 µM in the assay with SF-295 CNS; 99.7 µM in the assay on A498 renal. In addition, the TGI in the assay with MALME-3M melanoma, in the assay on HS 578T breast and in the assay with OVCAR-8 ovarian was over 100 µM throughout.
Regarding `N#C/C(C(=O)Nc1ccc(Cl)cc1)=C(/N)N1CCOCC1`, the TGI in the assay on SNB-19 CNS, in the assay with SR leukemia, with KM12 colon, in the assay on SF-539 CNS, in the assay with HCC-2998 colon and with UACC-257 melanoma was over 100 µM each time. The TGI with T-47D breast, with SK-OV-3 ovarian, with CCRF-CEM leukemia, in the assay on LOX IMVI melanoma, in the assay on MCF7 breast and in the assay with ACHN renal was over 100 µM in each case. For the same compound, the TGI with UO-31 renal, with SF-295 CNS, with A498 renal and in the assay on OVCAR-8 ovarian was over 100 µM in each case.
On to `O=C(N/N=C/c1ccc(Cl)cc1)c1ccccc1Nc1ccccc1C(=O)N/N=C/c1ccc(Cl)cc1`, for which the TGI in the assay with SNB-19 CNS, with SR leukemia, in the assay on KM12 colon, with HCC-2998 colon, in the assay on UACC-257 melanoma and in the assay with T-47D breast was over 100 µM throughout. Also, the TGI in the assay with SK-OV-3 ovarian, in the assay on CCRF-CEM leukemia, in the assay on LOX IMVI melanoma, in the assay with MCF7 breast, with ACHN renal and in the assay with UO-31 renal was over 100 µM throughout. Further, the TGI in the assay on SF-295 CNS, in the assay on A498 renal, with MALME-3M melanoma and in the assay on OVCAR-8 ovarian was over 100 µM throughout.

(Values after PubChem BioAssay (NCI).)
